Like-named read-outs stand apart in the source and are kept apart here. One block for each compound: values may come before it. Where a SMILES comes first, the peptide text is derived from it.
How the values were obtained:
[1] = system: B16-F10; assay: in vitro tumor cell attachment assay on gelatinized culture plates (acid phosphatase colorimetric readout); type: cell-based
Method: The following two examples of assays for suitable agents are designed to approximate a wound environment, and thus act as quick tests for suitable agents for practical use in particular circumstances. These assays are not limiting to the application. One example of an in vitro assay for determining the effect of one of the above agents on tumor cell attachment was performed as follows. Gelatinized 96-well tissue culture plates (Co-star, Cambridge, MA) were prepared by treating a standard culture plate with 100 microliters of 1.5% gelatin (Difco, Detroit, MI) in phosphate-buffered saline (PBS) and incubating the plate at 37°C for at least 24 hours. The solution was then aspirated and the cells washed twice with 200 microliters of PBS prior to use. Test agents were diluted in Dulbecco's Modified Eagles Medium (DMEM; Gibco Laboratories, Grand Island, NY) containing 10% fetal calf serum (FCS; Gibco), and 100 microliters of the diluted agent added to each well. […] The cells were grown in DMEM supplemented with 10% FCS, 2 mM glutamine and 100 units per ml penicillin and streptomycin.
After the cells and agent were incubated, the medium was aspirated from each well and the well washed twice with 200 microliters of PBS. […] Briefly, 100 microliters of an acid phosphatase reagent (0.1M sodium acetate, 0.01M p-nitrophenyl phosphate, 0.1% Triton-X 100) was added to each well, the plates incubated at 37°C for two hours, and 10 microliters 1N NaOH added to each well. The optical density of each well was read at 405nm on a Biotek ELISA reader. The optical density is directly related to cell number. The results were expressed as percent of optical density in untreated control wells,and represent the mean of at least three wells.

[2] = system: B16-F10; assay: reversibility test: unattached cells washed and replated on gelatinized plates in new medium; type: cell-based; conditions: cells replated in fresh medium in new dishes
Method: In order to determine whether inhibition of cell attachment was non-toxic and reversible with any particular agent, the tumor cells were incubated in the presence of the agent and unattached cells collected, washed twice with serum containing medium, and replated on gelatinized well plates in new culture medium. Control cells were handled in a similar manner, except that they were removed from wells 16 hours after incubation by trypsinization. After incubation for 4-16 hours, the medium was aspirated, the wells washed twice with 200 microliters of PBS, and the remaining attached cells trypsinized and counted with a Coulter counter.

[3] = system: B16-F10 melonoma; type: in vivo, C57 B1/6 mice
Method: Inhibitors of tumor cell attachment in vivo are tested by their ability to block tumor cell attachment in a surgical wound. Wounds were made on the backs of C57 B1/6 mice (Charles River Laboratories, Wilmington, MA) using aseptic procedures under methoxyflurane anesthesia (Pittman-Moore Inc., Washington Crossing, NJ). […] The scissors were used to create a lateral subcutaneous pocket off a dorsal mid-line wound in an uncontaminated animal. Prior to use, the scissors were inspected to insure that no visible tissue was present on them. Prior to closure, the wounds were vigorously irrigated with 3ml of Ringers lactate supplemented with a chosen agent. Excess fluid was then expressed and the wound closed with skin clips.

[4] = system: cancer cells; conditions: cited from earlier work

Compound: N=C(N)NCCC[C@H](NC(=O)CN)C(=O)NCC(=O)N[C@@H](CC(=O)O)C(=O)N[C@@H](CO)C(=O)N1CCC[C@H]1C(=O)O [GRGDSP, glycine-arginine-glycine-aspartate-serine-proline]
concentrations at which tumor cell attachment was inhibited [1]: greater than 10 mg/ml
reversibility of inhibition of tumor cell attachment [2]: reversibly inhibited

infection from use of the agents ([3]; mouse, in vivo): No evidence of infection
Compound: N=C(N)NCCC[C@H](NC(=O)CN)C(=O)NCC(=O)N[C@@H](CC(=O)O)C(=O)N[C@@H](CO)C(=O)O [GRGDS]
wound healing process ([3]; mouse, in vivo): nor was the wound healing process delayed
average volume of tumors formed in other animals ([3]; versus control animals): significantly smaller
formation of tumors in animals ([3]; wound irrigation): inhibited formation of a significant percentage of tumors

Compound: N=C(N)NCCC[C@H](NC(=O)CN)C(=O)NCC(=O)N[C@@H](CCC(=O)O)C(=O)N[C@@H](CO)C(=O)N1CCC[C@H]1C(=O)O [GRGESP, glycine-arginine-glycine-glutamate-serine-proline] (H-GRGESP-OH)
attachment of B16 melanoma cells ([1]; compared with GRGDSP): inhibited attachment of B16 melanoma cells but was less effective

Compound: O=C(O)[C@@H]1CCN1 [LACA, L-azetidine-2-carboxylic acid]
minimal effective concentration ([1]; Mus musculus, B16-F10, read-out: doses at which tumor cell attachment was inhibited): > 25 µg/mL
reversibility of inhibition of tumor cell attachment [2]: reversibly inhibited

Compound: [Na+].[O-]Cl [sodium hydrochlorite]
preventing tumor growth ([4]; 0.5% solution buffered to pH 9): as effective as the above chemicals
toxicity to the animal ([4]; in vivo, pH 9): considerably less toxic

Compound: monoxychlorosene
toxic effects locally and systemically ([4]; in vivo): highly toxic effects
toxicity to tissues ([4]; in vivo): toxic to tissues
wound healing process ([4]; in vivo): delayed the wound healing process
preventing tumor growth ([4]; one percent solution): ineffective
preventing tumor growth ([4]; two percent solutions): effective
